According to PubChem BioAssay AID192 (DTP/NCI, 2004):
“And” between values parts separate entries of the source, which are not always exact repeats. Identical values can stand only once. Inconclusive results and toxic doses are left out. The calls were made as follows: active = survival T/C of 150% or more; inactive = T/C below 125% in these data.

Test system: BDF1 mice, B16 melanoma ip, median survival T/C
Assay: NCI In Vivo Anticancer Drug Screen. Data for tumor model B16 Melanoma (intraperitoneal) in B6D2F1 (BDF1) mice
Conditions: endpoint: median survival time, higher = longer survival
Procedure, shortened: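 Tumor-bearing mice received test compound or vehicle. Survival or tumor size was then measured in both groups. The treated-group figure was divided by the control-group figure.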

[1] = dose: 2.0 mg/kg/injection, schedule: Q01DX009 (ip), vehicle: saline with Tween-80
[2] = dose: 4.0 mg/kg/injection, schedule: Q01DX009 (ip), vehicle: saline with Tween-80
[3] = dose: 8.0 mg/kg/injection, schedule: Q01DX009 (ip), vehicle: saline with Tween-80
[4] = dose: 25.0 mg/kg/injection, schedule: Q01DX009 (ip), vehicle: saline
[5] = dose: 50.0 mg/kg/injection, schedule: Q01DX009 (ip), vehicle: saline
[6] = dose: 50.0 mg/kg/injection, schedule: Q01DX009 (ip), vehicle: Klucel (hydroxypropylcellulose) (HPC)
[7] = dose: 100.0 mg/kg/injection, schedule: Q01DX009 (ip), vehicle: Klucel (hydroxypropylcellulose) (HPC)
[8] = dose: 12.5 mg/kg/injection, schedule: Q01DX009 (ip), vehicle: saline with Tween-80
[9] = dose: 0.78 mg/kg/injection, schedule: Q01DX009 (ip), vehicle: saline
[10] = dose: 1.56 mg/kg/injection, schedule: Q01DX009 (ip), vehicle: saline
[11] = dose: 3.12 mg/kg/injection, schedule: Q01DX009 (ip), vehicle: saline
[12] = dose: 6.25 mg/kg/injection, schedule: Q01DX009 (ip), vehicle: saline
[13] = dose: 12.5 mg/kg/injection, schedule: Q01DX009 (ip), vehicle: saline
[14] = dose: 200.0 mg/kg/injection, schedule: Q01DX009 (ip), vehicle: Klucel (hydroxypropylcellulose) (HPC)
[15] = dose: 400.0 mg/kg/injection, schedule: Q01DX009 (ip), vehicle: Klucel (hydroxypropylcellulose) (HPC)
[16] = dose: 100.0 mg/kg/injection, schedule: Q01DX009 (ip), vehicle: saline with Tween-80
[17] = dose: 12.5 mg/kg/injection, schedule: Q01DX009 (ip), vehicle: Klucel (hydroxypropylcellulose) (HPC)
[18] = dose: 25.0 mg/kg/injection, schedule: Q01DX009 (ip), vehicle: Klucel (hydroxypropylcellulose) (HPC)
[19] = dose: 25.0 mg/kg/injection, schedule: Q01DX009 (ip), vehicle: saline with Tween-80

Measured: T/C

COC(=O)c1[nH]c(=O)[nH]c(=O)c1F
inactive: [1] 95 % of control | [2] 97 % of control | [3] 107 % of control

CN(CCN(C)Cc1ccccc1)Cc1ccccc1
inactive: [4] 100 % of control | [5] 92 % of control

COC(=O)c1cc(Cl)ccc1OCC(=O)Nc1ccc([N+](=O)[O-])cc1
inactive: [6] 100 % of control | [7] 100 % of control

CC(=O)OCC1OC([Se][As](C)C)C(OC(C)=O)C(OC(C)=O)C1OC(C)=O (stereo unspecified)
inactive: dose: 3.13 mg/kg/injection, schedule: Q01DX009 (ip), vehicle: saline with Tween-80 88 % of control | dose: 6.25 mg/kg/injection, schedule: Q01DX009 (ip), vehicle: saline with Tween-80 100 % of control | [8] 90 % of control

CC1CN1P1(N2CC2C)=NP(N2CC2C)(N2CC2C)=NP(N2CC2C)(N2CC2C)=N1 (stereo unspecified)
inactive: [9] 111 % of control | dose: 1.0 mg/kg/injection, schedule: Q01DX009 (ip), vehicle: saline 89 % of control and 99 % of control | dose: 1.0 mg/kg/injection, schedule: Q02DX009 (ip), vehicle: saline 91 % of control and 100 % of control | [10] 104 % of control | dose: 2.0 mg/kg/injection, schedule: Q01DX009 (ip), vehicle: saline 96 % of control and 103 % of control | dose: 2.0 mg/kg/injection, schedule: Q02DX009 (ip), vehicle: saline 100 % of control and 105 % of control and 107 % of control | [11] 105 % of control | dose: 4.0 mg/kg/injection, schedule: Q01DX009 (ip), vehicle: saline 110 % of control and 116 % of control | dose: 4.0 mg/kg/injection, schedule: Q02DX009 (ip), vehicle: saline 99 % of control and 103 % of control and 110 % of control | [12] 97 % of control and 117 % of control | dose: 8.0 mg/kg/injection, schedule: Q01DX009 (ip), vehicle: saline 107 % of control | dose: 8.0 mg/kg/injection, schedule: Q02DX009 (ip), vehicle: saline 108 % of control and 109 % of control and 112 % of control | [13] 116 % of control | dose: 16.0 mg/kg/injection, schedule: Q01DX009 (ip), vehicle: saline 117 % of control | dose: 16.0 mg/kg/injection, schedule: Q02DX009 (ip), vehicle: saline 101 % of control and 112 % of control and 116 % of control | [4] 114 % of control and 118 % of control | dose: 32.0 mg/kg/injection, schedule: Q01DX009 (ip), vehicle: saline 110 % of control | dose: 32.0 mg/kg/injection, schedule: Q02DX009 (ip), vehicle: saline 109 % of control | dose: 64.0 mg/kg/injection, schedule: Q01DX009 (ip), vehicle: saline 105 % of control | dose: 64.0 mg/kg/injection, schedule: Q02DX009 (ip), vehicle: saline 115 % of control

C[C@]12CC[C@H]3[C@@H](CCC4=CC(=O)CC[C@@]43C)[C@@H]1CC[C@@H]2OC(=O)Cc1ccc(N(CCCl)CCCl)cc1
inactive: dose: 64.0 mg/kg/injection, schedule: Q02DX009 (ip), vehicle: Klucel (hydroxypropylcellulose) (HPC) 100 % of control and 111 % of control | dose: 128.0 mg/kg/injection, schedule: Q02DX009 (ip), vehicle: Klucel (hydroxypropylcellulose) (HPC) 95 % of control and 115 % of control | dose: 256.0 mg/kg/injection, schedule: Q02DX009 (ip), vehicle: Klucel (hydroxypropylcellulose) (HPC) 122 % of control

Nc1ncnc2c1ccn2C1OC(CO)C(O)C1O (stereo unspecified)
inactive: dose: 0.32 mg/kg/injection, schedule: Q01DX009 (ip), vehicle: saline 107 % of control | dose: 0.5 mg/kg/injection, schedule: Q01DX009 (ip), vehicle: Klucel (hydroxypropylcellulose) (HPC) 91 % of control | dose: 0.63 mg/kg/injection, schedule: Q01DX009 (ip), vehicle: saline 120 % of control | dose: 1.0 mg/kg/injection, schedule: Q01DX009 (ip), vehicle: Klucel (hydroxypropylcellulose) (HPC) 99 % of control | dose: 2.0 mg/kg/injection, schedule: Q01DX009 (ip), vehicle: Klucel (hydroxypropylcellulose) (HPC) 90 % of control

CS(=O)(=O)O
inactive: dose: 100.0 mg/kg/injection, schedule: Q01DX009 (ip), vehicle: saline 106 % of control | dose: 200.0 mg/kg/injection, schedule: Q01DX009 (ip), vehicle: saline 113 % of control | dose: 400.0 mg/kg/injection, schedule: Q01DX009 (ip), vehicle: saline 123 % of control

OCC(O)COCC#Cc1ccccc1 (stereo unspecified)
inactive: [12] 118 % of control | [13] 114 % of control | [4] 110 % of control | [6] 87 % of control | [5] 101 % of control

CC(=O)[C@H]1CC[C@H]2[C@@H]3C[C@H](C)C4=CC(=O)CC[C@]4(C)[C@H]3C(=O)C[C@]12C
inactive: [7] 107 % of control | [14] 92 % of control | [15] 94 % of control

CC(C)CC(C)(c1ccc(O)cc1)c1ccc(O)cc1
inactive: [16] 98 % of control | dose: 200.0 mg/kg/injection, schedule: Q01DX009 (ip), vehicle: saline with Tween-80 98 % of control

COc1cc2c3c(c4ccc(OC)c(OC)c4c2cc1OC)CN1CCC[C@@H]1C3
inactive: [1] 97 % of control | [2] 89 % of control | [3] 102 % of control and 118 % of control | dose: 16.0 mg/kg/injection, schedule: Q01DX009 (ip), vehicle: saline with Tween-80 106 % of control

CC(=O)ON1C(=O)C=CC1=O
inactive: dose: 3.13 mg/kg/injection, schedule: Q01DX009 (ip), vehicle: water 92 % of control | dose: 6.25 mg/kg/injection, schedule: Q01DX009 (ip), vehicle: water 103 % of control | dose: 12.5 mg/kg/injection, schedule: Q01DX009 (ip), vehicle: water 106 % of control | dose: 25.0 mg/kg/injection, schedule: Q01DX009 (ip), vehicle: water 87 % of control

Cc1cc(C)c(-c2cc(O)c(C)cc2O)c(C)c1
inactive: [17] 95 % of control | [18] 97 % of control | [6] 97 % of control | [7] 93 % of control | [14] 90 % of control

O=[N+]([O-])c1ccc2c(c1)=N/C(=N\c1nc(O)c(O)[nH]1)N=2
inactive: [7] 86 % of control | [14] 100 % of control | [15] 103 % of control

Nc1nc(SCc2ccccc2)c2[nH]cnc2n1
inactive: dose: 3.13 mg/kg/injection, schedule: Q01DX009 (ip), vehicle: saline sonified 95 % of control | dose: 6.25 mg/kg/injection, schedule: Q01DX009 (ip), vehicle: saline sonified 100 % of control | dose: 12.5 mg/kg/injection, schedule: Q01DX009 (ip), vehicle: saline sonified 93 % of control | dose: 25.0 mg/kg/injection, schedule: Q01DX009 (ip), vehicle: saline sonified 97 % of control

CS(=O)(=O)c1cc(=O)[nH]c(=O)[nH]1
inactive: [19] 95 % of control | [16] 92 % of control

C=C1CCN(c2cccc(Cl)c2)C1=O
inactive: dose: 1.0 mg/kg/injection, schedule: Q01DX009 (ip), vehicle: saline + alcohol 107 % of control | dose: 2.0 mg/kg/injection, schedule: Q01DX009 (ip), vehicle: saline + alcohol 117 % of control | dose: 4.0 mg/kg/injection, schedule: Q01DX009 (ip), vehicle: saline + alcohol 101 % of control and 115 % of control | dose: 8.0 mg/kg/injection, schedule: Q01DX009 (ip), vehicle: saline + alcohol 101 % of control | dose: 16.0 mg/kg/injection, schedule: Q01DX009 (ip), vehicle: saline + alcohol 95 % of control | dose: 32.0 mg/kg/injection, schedule: Q01DX009 (ip), vehicle: saline + alcohol 96 % of control | dose: 64.0 mg/kg/injection, schedule: Q01DX009 (ip), vehicle: saline + alcohol 100 % of control

CC1(C)N=C(N)N=C(N)N1c1ccc2ccccc2c1
inactive: [8] 90 % of control | dose: 22.0 mg/kg/injection, schedule: Q01DX009 (ip), vehicle: Klucel (hydroxypropylcellulose) (HPC) 87 % of control | [19] 94 % of control | dose: 33.0 mg/kg/injection, schedule: Q01DX009 (ip), vehicle: Klucel (hydroxypropylcellulose) (HPC) 91 % of control | [6] 119 % of control | dose: 50.0 mg/kg/injection, schedule: Q01DX009 (ip), vehicle: saline with Tween-80 98 % of control

O=C1CNC(c2ccccc2)c2cc(Cl)ccc2N1 (stereo unspecified)
inactive: [17] 107 % of control | [18] 97 % of control | [6] 107 % of control | [7] 94 % of control | [14] 102 % of control

[Cl][Ni+2][Cl].[NH-]CCN1CC1
inactive: [9] 97 % of control | [10] 97 % of control | [11] 90 % of control

Cc1ccc([N+](=O)[O-])c(O)c1[N+](=O)[O-]
inactive: [6] 100 % of control | [14] 90 % of control
